Test results reported in patent US20250295609A1, “COMPOUND HAVING ANTI-ANDROGEN RECEPTOR ACTIVITY, AND USE THEREOF” (NANJING MINOVA PHARMACEUTICAL CO., LTD., priority 2022, published 2025).
Where a name gives a salt, the structure may show the parent alone. Read-outs that look alike come from different tables or passages of the source.

What was measured:
[1] = test system: human prostate cancer cells LNCaP; assay: Cell viability inhibition assay (CTG) on LNCaP cells in presence of DHT; assay type: cell-based; conditions: read-out: Inhibitory activity against human prostate cancer cell LNCaP IC50
From the text: Human prostate cancer cells LNCaP and human prostate cancer cells 22Rvl are present in patients with prostate cancer. An androgen, DHT, is able to promote the growth of human prostate cancer cells LNCaP. Using the cell model described above was intended to study the inhibitory effects of the compounds of the present disclosure on the growth of human prostate cancer cells (human prostate cancer cells LNCaP and human prostate cancer cells 22Rvl) in the presence or absence of DHT.
The medium in the culture dish was discarded, and 5 mL of trypsin was added for digestion for about 3 mins. The digestion was stopped by adding 10 mL of a fresh medium. The cells were fully pipetted and transferred to a 15 mL centrifuge tube, and the cells were collected by centrifugation at 1000 rpm for 5 mins. The cells collected by centrifugation were resuspended in 11 mL of a fresh medium. 1 mL of the cells was taken and counted, and the cell viability was detected. The cell density was adjusted to 1×10^4 cells/mL by adding an appropriate amount of the medium. The cells were seeded in a 96-well plate at 200 µL/well, and the plate was incubated overnight in a cell incubator.
After the cells were attached to the well, for the human prostate cancer cells LNCaP group, test compounds (0.1 μM, 0.3 μM, 1 μM, 3 μM, 10 μM, and 30 μM) and DHT (1 nM, inducing the expression of AR) were added to the 96-well plate, and the plate was incubated for another 5 days; for the human prostate cancer cells 22Rvl group, test compounds (0.1 μM, 0.3 μM, 1 μM, 3 μM, 10 μM, and 30 μM) were added to the 96-well plate, and the plate was incubated for another 5 days. […] The 96-well plate was equilibrated at room temperature for 30 mins. The cell viability was detected by using a CTG method. Before detection, CellTiter-Glo® Buffer and a substrate thereof (collectively called CTG reagent) were thawed and equilibrated to room temperature. Then, […] of Buffer was gently mixed with the substrate to form a homogeneous solution. The homogeneous solution was added to the 96-well plate at 100 µL/well, and the 96-well plate was incubated on a shaker for 15 mins. The fluorescence value in each well was then detected. The detection method for the fluorescence value in each well was as follows: after adding the CTG reagent, luminescence detection (integration time: 500 ms) was performed by using a correspondingly equipped multi-mode microplate reader (M200Pro, TECAN, Switzerland) according to the supplier's manual to quantify the effect of the inhibitor on the cell viability. For data analysis, an assay background value was subtracted from all data points, which was determined in wells containing the medium but no cells. Data were processed using the XLfit software (XLfit 5.2., IDBS, UK), and IC50 values of the test compounds were calculated.

[2] = target: T1, AR protein expression in human prostate cancer cells LNCaP (Homo sapiens, UniProt P10275, T878A); assay: Reduction of AR protein expression in LNCaP cells (Western blot, with DHT); assay type: cell-based; conditions: 1 nM DHT; for anti-AR activity (in words): Western blot; for AR reduction percentage: 2.5 μmol/L compound; for AR reduction percentage / Relative potency (anti-AR activity): 48 h; for Relative potency (anti-AR activity): concentration basis not given
T1 sequence (P10275 1-920 T878A): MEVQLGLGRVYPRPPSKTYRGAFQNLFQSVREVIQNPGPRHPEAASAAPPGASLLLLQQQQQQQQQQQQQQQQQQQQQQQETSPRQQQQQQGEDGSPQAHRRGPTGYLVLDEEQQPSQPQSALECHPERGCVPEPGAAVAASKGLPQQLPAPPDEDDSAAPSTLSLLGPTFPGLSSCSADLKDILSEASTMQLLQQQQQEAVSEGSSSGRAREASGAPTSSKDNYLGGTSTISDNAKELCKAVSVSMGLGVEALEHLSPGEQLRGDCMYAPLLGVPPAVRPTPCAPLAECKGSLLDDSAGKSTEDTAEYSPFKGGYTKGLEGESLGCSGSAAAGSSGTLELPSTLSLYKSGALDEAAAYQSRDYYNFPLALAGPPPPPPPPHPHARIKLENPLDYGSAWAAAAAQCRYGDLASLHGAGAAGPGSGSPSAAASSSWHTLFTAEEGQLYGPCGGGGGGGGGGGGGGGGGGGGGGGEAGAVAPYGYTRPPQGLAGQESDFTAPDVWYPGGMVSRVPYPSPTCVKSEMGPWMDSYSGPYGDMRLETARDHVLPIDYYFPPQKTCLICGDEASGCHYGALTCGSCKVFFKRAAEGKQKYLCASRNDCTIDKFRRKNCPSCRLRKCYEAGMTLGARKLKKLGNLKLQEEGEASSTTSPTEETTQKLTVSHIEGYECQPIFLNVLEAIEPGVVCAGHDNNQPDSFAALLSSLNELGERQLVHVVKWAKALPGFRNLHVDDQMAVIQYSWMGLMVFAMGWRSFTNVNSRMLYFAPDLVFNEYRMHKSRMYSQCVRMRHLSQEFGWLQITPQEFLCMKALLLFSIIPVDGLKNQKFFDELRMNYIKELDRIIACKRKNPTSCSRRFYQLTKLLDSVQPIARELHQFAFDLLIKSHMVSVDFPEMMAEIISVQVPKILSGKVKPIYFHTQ
Protocol: The term “anti-AR activity” refers to the ability of the compound of the present disclosure to reduce AR expression in human prostate cancer cells LNCaP, and the ability of the compound of the present disclosure to reduce AR expression is expressed in AR reduction percentage (%) herein. […] The AR reduction percentage (%) is calculated as follows: AR reduction percentage (%)=(AR in DHT group/GAPDH value−AR in test compound group/GAPDH value)/AR in DHT group/GAPDH value×100%.
AR is a key factor for regulating the response of prostate cancer cells to androgens. AR is also a key factor for the response of hair follicles or tissues around the hair follicles to androgens, and the reduction of the AR content not only can down-regulate the growth of the prostate cancer cells, but also can inhibit androgenetic alopecia. This test example is to test the effects of the compounds of the present disclosure on the reduction of AR protein expression in human prostate cancer cells LNCaP in the presence of DHT. The compounds of the present disclosure were analyzed for anti-AR activity in human prostate cancer cells LNCaP by measuring the reduction of AR protein using the Western blot method.
Human prostate cancer cells LNCaP were seeded in a 6-well plate at 4×10^5 cells/mL and at a volume of 2 mL per well. The plate was incubated overnight in a cell incubator. DMSO and dihydrotestosterone (DHT, 1 nM) were used as control groups. Assays were performed in the presence of dihydrotestosterone (DHT, 1 nM). After incubating with the test compounds for a specified time, the cells were collected and dissolved according to the Western blot technique known in the biochemical art. A DMSO group, a DHT group (1 nM) and test compound groups (containing 1 nM DHT) were set during the assay. DMSO and DHT (1 nM DHT) were added to 6-well plates corresponding to the DMSO group and the DHT group, respectively. […] The protein concentration was quantified using the BCA kit, and then the samples were stored for later use.
The content of the AR protein in each group was determined by using Western Blot, and the loading amount of the sample in each group was […]. Western blot analysis has been disclosed in the prior art. Specifically, the cells were collected in 2× sodium dodecyl sulfate/polyacrylamide gel electrophoresis loading buffer or in radioimmunoprecipitation assay (RIPA) buffer strengthened with 10 μg/mL benzamidine, 10 μg/mL trypsin inhibitor, and 1 mM phenylmethylsulfonyl fluoride. A sample of total protein (about 40 μg) from each cell lysate was separated by electrophoresis on an SDS/PAGE gel. After separation by electrophoresis, the proteins were transferred from the gel to a nitrocellulose membrane following the standard procedures. The membrane was then incubated with 10% non-fat milk in phosphate-buffered saline supplemented with 0.1% Tween 20 (PBST) for 1 h, followed by incubation with a primary human AR-specific antibody (purchased from BD-Harlingen) at 4° C. overnight. After incubation, the membrane was washed 3 times with PBST buffer, each for 10 mins. An alkaline phosphatase-conjugated secondary antibody was then added, and the membrane was incubated at room temperature for 1 h. After the secondary incubation, the membrane was washed again with PBST, and the AR protein signal in the membrane was visualized by adding an alkaline phosphatase medium, bromochloroindolyl phosphate, and nitrotetrazole to the membrane. To ensure that an equal amount of protein from each sample was analyzed, a portion of the membrane was kept with a specific antibody for the regulatory protein GAPDH (Santa Cruz Biotechnology), and the GAPDH signal was visualized with the secondary antibody described above. The protein signal intensity (as indicated by color bands on the membrane) was measured using a densitometer and analyzed by the NIH Image J software (NIH1.33).

[3] = Homo sapiens, 120 h, 1 nM DHT, 5 days, CTG

Structure (SMILES) | IC50 ([1]; Homo sapiens, 120 h) [nM] | IC50 [1, 3] [nM] | other results
[2H]C([2H])([2H])Oc1ccc(/C=C/C(=O)C2(C(=O)/C=C/c3ccc(OC([2H])([2H])[2H])c(OC([2H])([2H])[2H])c3)CC2)cc1OC([2H])([2H])[2H] [Compound 1] | 1710 | – | –
[2H]C([2H])([2H])Oc1ccc(/C=C/C(=O)C2(C(=O)/C=C/c3ccc(OC([2H])([2H])[2H])c(OC([2H])([2H])[2H])c3)CCC2)cc1OC([2H])([2H])[2H] [Compound 2] | 1820 | – | –
[2H]C([2H])([2H])Oc1ccc(/C=C/C(=O)C2(C(=O)/C=C/c3ccc(OC([2H])([2H])[2H])c(OC([2H])([2H])[2H])c3)CCCC2)cc1OC([2H])([2H])[2H] [Compound 3] | 1750 | – | –
COc1ccc(/C=C/C(=O)C2(C(=O)/C=C/c3ccc(OC)c(OC)c3)CC3(CC3)C2)cc1OC [Compound 5] | 5480 | – | –
[2H]C([2H])([2H])Oc1ccc(/C=C/C(=O)C2(C(=O)/C=C/c3ccc(OC([2H])([2H])[2H])c(OC([2H])([2H])[2H])c3)C([2H])([2H])C2([2H])[2H])cc1OC([2H])([2H])[2H] [Compound 6] | 2560 | – | –
COc1ccc(/C=C/C(=O)C2(C(=O)/C=C/c3ccc(OC)c(OC)c3)COC(=O)OC2)cc1OC [Compound 9] | 3310 | – | –
COc1ccc(/C=C/C(=O)C2(C(=O)/C=C/c3ccc(OC)c(OC)c3)CCC3(CC2)OCCO3)cc1OC [Compound 11] | – | 980 | –
COc1ccc(/C=C/C(=O)C2(C(=O)/C=C/c3ccc(OC)c(OC)c3)CCC(N3CCOCC3)CC2)cc1OC [Compound 12 hydrochloride] | – | – | anti-AR activity (in words) [2]: significant anti-AR activities; AR reduction percentage [2]: 86.2%; Relative potency (anti-AR activity) [2]: ++++++ (75 < * ≤ 100); IC50 ([1]; 1 nM DHT, 5 days, CTG, listed as 12 hydrochloride): 450 nM
COc1ccc(/C=C/C(=O)C2(C(=O)/C=C/c3ccc(OC)c(OC)c3)CCC(N3CCOCC3)CC2)cc1OC [Compound 12] | – | – | IC50 ([1]; 1 nM DHT, 5 days, CTG): 1290 nM
COc1ccc(/C=C/C(=O)C2(C(=O)/C=C/c3ccc(OC)c(OC)c3)CCC(O)CC2)cc1OC [Compound 13] | – | 950 | –
CCN(CC)C1CCC(C(=O)/C=C/c2ccc(OC)c(OC)c2)(C(=O)/C=C/c2ccc(OC)c(OC)c2)CC1 [Compound 16 hydrochloride] | 370 | – | –
COc1ccc(/C=C/C(=O)C2(C(=O)/C=C/c3ccc(OC)c(OC)c3)CCC(N3CCC(F)(F)CC3)CC2)cc1OC [Compound 18 hydrochloride] | – | 610 | –
COc1ccc(/C=C/C(=O)C2(C(=O)/C=C/c3ccc(OC)c(OC)c3)CCC(N3CCCCC3)CC2)cc1OC [Compound 19 hydrochloride] | – | 350 | anti-AR activity (in words) [2]: significant anti-AR activities; AR reduction percentage [2]: 81.4%; Relative potency (anti-AR activity) [2]: ++++++ (75 < * ≤ 100)
COc1ccc(/C=C/C(=O)C2(C(=O)/C=C/c3ccc(OC)c(OC)c3)CC=C(F)CC2)cc1OC [Compound 22] | – | 3140 | –
COc1ccc(/C=C/C(=O)C2(C(=O)/C=C/c3ccc(OC)c(OC)c3)CCC(NC3CC(F)(F)C3)CC2)cc1OC [Compound 23 hydrochloride] | – | 620 | –
COc1ccc(/C=C/C(=O)C2(C(=O)/C=C/c3ccc(OC)c(OC)c3)CCN(S(C)(=O)=O)CC2)cc1OC [Compound 24] | 610 | – | –
COc1ccc(/C=C/C(=O)C2(C(=O)/C=C/c3ccc(OC)c(OC)c3)CCN(C(=O)OC(C)(C)C)CC2)cc1OC [Compound 25] | 1370 | – | –
COc1ccc(/C=C/C(=O)C2(C(=O)/C=C/c3ccc(OC)c(OC)c3)CCC3(CC3)CC2)cc1OC [Compound 26] | 620 | – | –
